Results published in patent US20250108135A1, “TERAGNOSTIC METHOD FOR CANCER PATIENTS” (priority 2022, published 2025).

Legend:
[1] = test system: U87MG, PC-3, CAMA1, C8161, HT-29, A549 cancer cell lines; assay: 64CuCl2 tumor cell uptake (internalization) at different radioconcentrations; type: cell-based; details: 4 h after treatment; same dose of radioactivity; higher radioconcentrations (2,775 and 1,850 MBq/mL) compared to the lowest (925 MBq/mL); all the cell lines
Description: (§1) The capability resulted improved at a radioconcentration higher than 925 MBq/mL compared to lower concentrations. This is the first time that the impact of the drug radioconcentration has been correlated to the cell-killing effect for the translation to humans. The inventor performed internalization and survival studies on different cancer cell lines (U87MG [glioblastoma], PC-3[prostate cancer], CAMA1 [breast cancer], C8161[melanoma], HT-29[colorectal cancer]), A549 [lung cancer] applying the same amount (dose) of radioactivity (eg. 10 MBq), but at different radioconcentrations, e.g. 2,775 MBq/mL vs. 1,850 MBq/mL, vs. 925MBq/mL.
(§2) This effect of the radioconcentration could have a great impact on patients for the optimization of treatment. In fact, in consideration of the mechanism through which ^64Cu reaches the tumor cell, the different radioconcentrations, that is to say “the number of nuclear disintegrations per unit time in a given amount of the preparation”, can influence the biodistribution in vivo. […]
FIG. 1—Impact of different radioconcentrations on tumor cell uptake ^64CuCl2 cell uptake in different tumor cell lines U87MG, PC-3, CAMA1, C8161, HT-29. Cell uptake was evaluated treating cells at the same dosage (15 MBq/dish 100 mm), but at three different radioconcentrations C1=925 MBq/mL, C2=1,850 MBq/mL, C3=2,775 MBq/mL. Values are expressed as mean ±SEM.

[2] = test system: U-87 GM cells; details: nude mice implanted with U-87 GM cells; cited from earlier work
[3] = test system: PCa spheroids (derived from 22RV1, DU145, and LNCaP cells); details: in vitro; cited from earlier work
[4] = test system: U87MG; assay: Cell survival (cell-killing effect) at different radioconcentrations; type: cell-based
Description: as §1, §2
Survival curve of U87MG treated with the same dosage range but at three different concentrations C1=925 MBq/mL, C2=1,850 MBq/mL, C3=2,775 MBq/mL. Value are expressed as mean ±SEM. […]

[5] = test system: glioblastoma; assay: Response to 64CuCl2 treatment in glioblastoma patients (MRI, RANO criteria); type: in vivo, human
Description: A glioblastoma patient of 70 kg that belongs to the class of recurrent glioblastoma. The patient underwent surgery, radiotherapy and chemotherapy and after that experienced recurrence. Standard treatment are not effective in this setting therefore the patient received a diagnostic dose of ^64CuCl2 equal to 925 MBq. After 1 h from administration a PET/CT scan is performed. The patient resulted positive for copper lesion at the diagnostic dose and started treatment
The treatment with ^64CuCl2 (2,775 MBq/mL) for intravenous use by injection followed this scheme and the patient received once a week: • 1st dose=4,810 MBq, 2nd dose=4,810 MBq, 3rd dose=4,810 MBq, 4th dose=4,810 MBq, 5th dose=4,810 MBq, 6th dose=4,810 MBq, 7th dose=4,810 MBq
The patient (71 Kg) underwent surgery, radiotherapy and chemotherapy and after that experienced recurrence. Standard treatments are not effective in this setting therefore the patient received a diagnostic dose of ^64CuCl2 equal to 925 MBq. After 1 h from administration a PET/CT scan is performed. The patient resulted positive for copper lesion at the diagnostic dose and started treatment (^64CuCl2 277 MBq/mL for intravenous by infusion).
The treatment followed this scheme and the patient received once a week: • 1st dose=1,850 MBq, 2nd dose=2,460 MBq, 3rd dose=2,922 MBq, 4th dose=3,292 MBq, 5th dose=3,606 MBq, 6th dose=3,865 MBq, 7th dose=4,068 MBq.
The phase I clinical trial on glioblastoma is the first study evaluating preliminary efficacy of ^64CuCl2 2,775 MBq/mL as therapeutic agent. This determination was performed on 10 patients, at the end of the 7th therapy dose, at 90th day (after 3 months of the last treatment) and whenever possible at 180th day to obtain a wider evaluation of the disease status. Data cut-off was performed after 5 patients. The response to treatment, in term of anti-tumor activity of ^64CuCl2, was measured by MRI, assessed according to the RANO criteria (Response Assessment in Neuro-Oncology, see Wen PY et al.) and defined as complete response (disappearance of tumor) partial response (reduction) and stable disease (non-progression of GBM). Among these patients 4 resulted responders and 1 non-responder. […] Tumor volume reduction ≥50% was also shown in two cases after three months from the last treatment, and in one patient after 6 months from the last treatment.

[6] = test system: Human GBM cell lines (LI) PARI, ADF and T98G; details: time and dose dependent; cited from earlier work
[7] = test system: prostate cancer; assay: Response to 64CuCl2 treatment in prostate cancer patients (PET/CT); type: in vivo, human
Description: The patient at initial diagnosis had local tumor, and after surgery (radical prostatectomy) they underwent radiotherapy and chemotherapy. However, they experienced local recurrence plus a bone metastatic lesion. After receiving all standard treatments, the patient received a diagnostic dose of ^64CuCl2 equal to 925 MBq. After 1 h from administration a PET/CT scan is performed. The patient resulted positive for copper lesion at the diagnostic dose and started treatment. […] The PET/CT acquired the same day of the 4th therapeutic administration and the PET/CT acquired before treatment beginning were analyzed by two independent observers (a third observer expressed another evaluation only in case of discrepancies).

[8] = Biodistribution, pharmacokinetics, dosimetry and safety in glioblastoma patients; type: in vivo, human
Description: Six glioblastoma patients were evaluated for safety profile and the study of biodistribution was conducted including evaluation of PET/CT scans after first daily dose administration of radiopharmaceutical composition having a radioconcentration of 2,775 MBq/mL (day 0), at different time points 1 h, 4 h, 24 h, 48 h after injection and pharmacokinetic (PK) radioactivity on blood samples at different time points of administration.

[9] = test system: B16F10 or A375M tumors; details: vs control group, cited from earlier work
[10] = Effective dose of the diagnostic 64CuCl2 administration; type: in vivo, human; details: diagnostic dose 370-925 MBq
Excerpt: Patients with tumor received ^64CuCl2 at a dose between 370-925 MBq to ensure appropriate image quality. The mean effective dose for ^64CuCl2 calculated is 20 mSv per exam, which is aligned with the ones from the conventional PET imaging.

[11] = test system: 5 human neoplastic cell lines (ovarian cancer, head and neck, neuroendocrine lung carcinoma, colorectal cancer, glioblastoma); details: microPET after administration of 64CuCl2; cited from earlier work
[12] = phase I glioblastoma, 2,775 MBq/mL, data cut-off after 5 patients, 7 treatments
[13] = six glioblastoma patients, 2,775 MBq/mL

## [Cl][Cu][Cl] [^64CuCl2, Copper Chloride]
[1]
  cell uptake: significantly greater
[2]
  tumor volume, in some cases: complete regression
[3]
  growth of spheroids: reduce their growth
[4]; 24 h after treatment, 2,775 MBq/mL, U87MG survival curve
  cell-killing effect: increased cell-killing effect
[4]; C3=2,775 MBq/mL vs C1=925 MBq/mL at D4=1.7 MBq and D5=3.4 MBq
  improved cell killing-effect compared to C1: about 30%
[5]; 6 months from the last treatment
  patients with tumor volume reduction ≥50%: one
[5]; day 42 evaluation
  patients with reduction of tumor volume ≥50% compared to baseline MRI: one
[5]; day 42 evaluation, responder patients
  patients with stable disease: 3 patients
[5]; day 90
  patients with stable disease: 2 patients
[5]; [12]
  number of non-responders: 1
  number of responders: 4
[5]; recurrent glioblastoma patient (71 Kg), 277 MBq/mL i.v. infusion, 7 increasing doses 1,850-4,068 MBq once a week
  response to the treatment: responder
[5]; three months from the last treatment
  cases with tumor volume reduction ≥50%: two
[5]; up to six months after treatment
  patients with stable disease: one
[6]
  modulation of cell viability: dose dependent
[7]; five prostate cancer patients, after 4 administrations, 2,775 MBq/mL solution for injection
  volume of lesions (PET/CT): a reduction or a non-progression
[7]; metastatic prostate cancer patient, 2,775 MBq/mL injection, 7 doses of 4,810 MBq once a week
  tumor lesions on the bone, PET/CT before and after treatment: reduction of the tumor lesions on the bone
[8]; glioblastoma patients
  treatment related toxicities associated to liver/kidney and red marrow distribution: No treatment related toxicities were registered
[8]; [13]
  biodistribution (organ uptake): significant uptake in the liver (as expected) followed by kidney and L2-L4 regions
  effective dose, median: 26.08 mSv
[8]; six glioblastoma patients, 2,775 MBq/mL, PET/CT 1 h, 4 h, 24 h, 48 h after injection
  64Cu uptake over time (pharmacokinetic profile): increases up to 4 h post-injection and decreased thereafter
[9]; B16F10 and A375M models, one dose about 74 MBq
  tumor growth: much slower than that of the control group
[9]; mice bearing B16F10 or A375M tumors
  survival: significantly improved survival
[10]
  mean effective dose per exam: 20 mSv
[11]
  uptake of 64Cu2+ by neoplastic tissues: significant uptake
